Source: patent US5242938A, “Derivatives of virginiamycin M1” (Merck & Co., Inc., priority 1992, dated 1993)
Values after ≈ are worked out from the molar mass of the structure shown. Read-outs that look alike come from different tables or passages of the source.

What was measured:
gastric acid secretion = settings: cited from earlier work
[1] = biological target: T1, CCK-B (guinea pig cortex) (Cavia porcellus, UniProt H0VZC5); experiment: [125I]BHCCK-8 radioligand binding, guinea pig cortical preparation; settings: read-out: CCK binding inhibition - IC50, [125I]BHCCK
T1 construct: guinea pig cortical preparations; from tissue; host or cells: guinea pig brain cortex membranes
T1 sequence (H0VZC5 1-426): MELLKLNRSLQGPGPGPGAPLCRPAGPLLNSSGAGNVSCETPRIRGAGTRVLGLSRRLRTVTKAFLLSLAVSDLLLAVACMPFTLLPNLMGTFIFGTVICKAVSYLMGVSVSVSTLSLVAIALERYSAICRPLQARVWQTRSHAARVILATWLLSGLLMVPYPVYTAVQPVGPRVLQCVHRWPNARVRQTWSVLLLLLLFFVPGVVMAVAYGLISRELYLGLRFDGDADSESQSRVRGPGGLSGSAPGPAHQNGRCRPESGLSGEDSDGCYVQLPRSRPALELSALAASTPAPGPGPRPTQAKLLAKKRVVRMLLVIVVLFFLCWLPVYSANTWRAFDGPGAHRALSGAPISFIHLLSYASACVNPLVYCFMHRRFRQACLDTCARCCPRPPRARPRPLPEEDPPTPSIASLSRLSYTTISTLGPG
Procedure: (§1) The resulting supernatant was re-spun at 20,000×g for 20 minutes. […] Incubations were for 40 minutes at 4° C. and were terminated by filtration and washing with ice cold 100 mM saline. […] Incubations were for 30 minutes at room temperature and were terminated by filtration over GF/C filters and washing with 100 mM NaCl.

[2] = biological target: T1, CCK-B (guinea pig cortex); experiment: [3H]L-365,260 CCK-B selective antagonist ligand binding, brain membranes; settings: for IC50: read-out: CCK binding inhibition - IC50, [3H]L-365,260
Procedure: as §1

CCK-A (rat pancreas) [3] = biological target: T2, CCK-A (rat pancreas) (Rattus norvegicus, UniProt P30551); experiment: [125I]BHCCK-8 radioligand binding, rat pancreatic preparation; settings: read-out: CCK binding inhibition - IC50, [125I]BHCCK
T2 construct: from tissue; host or cells: rat pancreas
T2 sequence (P30551 1-444): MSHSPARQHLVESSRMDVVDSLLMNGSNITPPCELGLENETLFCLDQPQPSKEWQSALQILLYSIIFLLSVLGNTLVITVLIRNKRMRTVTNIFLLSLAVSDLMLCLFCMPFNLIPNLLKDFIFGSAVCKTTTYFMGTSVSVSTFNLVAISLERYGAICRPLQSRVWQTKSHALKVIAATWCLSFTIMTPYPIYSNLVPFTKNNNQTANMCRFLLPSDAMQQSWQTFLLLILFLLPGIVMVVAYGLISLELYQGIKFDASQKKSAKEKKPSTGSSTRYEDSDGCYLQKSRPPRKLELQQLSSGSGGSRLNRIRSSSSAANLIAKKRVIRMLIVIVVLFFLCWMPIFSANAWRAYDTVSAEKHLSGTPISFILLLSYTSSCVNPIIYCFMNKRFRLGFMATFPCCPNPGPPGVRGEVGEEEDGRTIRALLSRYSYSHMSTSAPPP
Procedure: as §1

CCK-A (rat pancreas) [4] = biological target: T2, CCK-A (rat pancreas); experiment: [3H]L-364,718 CCK-A selective antagonist ligand binding, pancreas; settings: for IC50: read-out: CCK binding inhibition - IC50, [3H]L-364,718
Procedure: as §1

Bacillus sp. (Mb 633) = experiment: Agar diffusion disc assay, Baci 633; type: cell-based; settings: Bacillus, 18 h
Method in brief: (§2)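 Paper-disc agar diffusion per Barry. Methanol stock 1 mg/ml, serial dilutions, 20 μl per 6 mm disc, air dried. Seeded plates ~10^6 cfu, ~18 h, 25° C. Zones to nearest mm; n=3, mean.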

[5] = test system: Staphylococcus aureus (Mb 108, ATCC 6538P); experiment: Agar diffusion disc assay, Sta 108; type: cell-based; settings: Staphylococcus aureus, ATCC6538P, 18 h; @ 20 g/disc; read-out: Inhibition zone diameter, Sta 108
Method in brief: as §2

[6] = test system: Bacillus subtilis (Mb 964, ATCC 6633); experiment: Agar diffusion disc assay, Subt 964; type: cell-based; settings: Bacillus subtilis, ATCC6633, 18 h; @ 20 g/disc; read-out: Inhibition zone diameter, Subt 964
Method in brief: as §2

[7] = test system: Micrococcus luteus (Mb 1101, ATCC 9341); experiment: Agar diffusion disc assay, Micr 1101; type: cell-based; settings: Micrococcus luteus; for MIC: read-out: Agar Diffusion MIC versus Micrococcus luteus; for zone of inhibition at 10 µg/disc: 10.0 μg/disc
Method in brief: as §2

[8] = test system: Staphylococcus aureus (Mb 2983); experiment: Agar diffusion disc assay, Sta 2983; type: cell-based; settings: Staphylococcus aureus, 18 h; @ 20 g/disc; read-out: Inhibition zone diameter, Sta 2983
Method in brief: as §2

[9] = test system: Corynebacterium pseudodiphtheriticum (Mb 261, ATCC 9742); experiment: Agar diffusion disc assay, Cory 261; type: cell-based; settings: Corynebacterium pseudodiphtheriticum, ATCC9742, 18 h; @ 20 g/disc; read-out: Inhibition zone diameter, Cory 261
Method in brief: as §2

[10] = test system: Streptococcus faecium (Mb 2820); experiment: Agar diffusion disc assay, Str 2820; type: cell-based; settings: Enterococcus faecium, 18 h; @ 20 g/disc; read-out: Inhibition zone diameter, Str 2820
Method in brief: as §2

[11] = test system: Streptococcus agalactiae (Mb 2875); experiment: Agar diffusion disc assay, Str 2875; type: cell-based; settings: Streptococcus agalactiae, 18 h; @ 20 g/disc; read-out: Inhibition zone diameter, Str 2875
Method in brief: as §2

[12] = test system: Salmonella gallinarum (Mb 1287); experiment: Agar diffusion disc assay, Salm 1287; type: cell-based; settings: Salmonella enterica, GALLINARUM, 18 h; @ 20 g/disc; read-out: Inhibition zone diameter, Salm 1287
Method in brief: as §2

[13] = test system: Escherichia coli (Mb 1418); experiment: Agar diffusion disc assay, Coli 1418; type: cell-based; settings: Escherichia coli, 18 h; @ 20 g/disc; read-out: Inhibition zone diameter, Coli 1418
Method in brief: as §2

[14] = test system: Pseudomonas stutzeri (Mb 1231, ATCC 11607); experiment: Agar diffusion disc assay, Pseu 1231; type: cell-based; settings: Stutzerimonas stutzeri, ATCC11607, 18 h; @ 20 g/disc; read-out: Inhibition zone diameter, Pseu 1231
Method in brief: as §2

[15] = test system: En terobacter aergenes (Mb 835); experiment: Agar diffusion disc assay, Ent 835; type: cell-based; settings: 18 h; @ 20 g/disc; read-out: Inhibition zone diameter, Ent 835
Method in brief: as §2

[16] = ATCC9341, 18 h, @ 20 g/disc, read-out: Inhibition zone diameter, Micr 1101
[17] = @ 20 g/disc, read-out: Inhibition zone diameter, Baci 633
[18] = ATCC9341, 25° C., ~18 hours, read-out: Mean of triplicate zone size versus Micrococcus luteus
[19] = ATCC9341, 20.0 μg/disc, 25° C., ~18 hours, read-out: Mean of triplicate zone size versus Micrococcus luteus

Row | Molecule | IC50 [1] [nM] | A.R. = agonist ratio = IC50([3H]L365,260)/IC50([125I]CCK) [2] | IC50 [2] [nM] | IC50 (CCK-A (rat pancreas) [3]) [nM] | IC50 (CCK-A (rat pancreas) [4]) [nM] | zone of inhibition at 20 µg/disc [5] [mm] | zone of inhibition at 20 µg/disc [6] [mm] | zone of inhibition at 20 µg/disc [7, 16] [mm] | MIC ([7]; ATCC9341, 18 h) [µM] | zone of inhibition at 20 µg/disc [8] [mm] | zone of inhibition at 20 µg/disc [9] [mm] | zone of inhibition at 20 µg/disc [10] [mm] | zone of inhibition at 20 µg/disc [11] [mm] | zone of inhibition at 20 µg/disc [12] [mm] | zone of inhibition at 20 µg/disc [13] [mm] | zone of inhibition at 20 µg/disc [14] [mm] | zone of inhibition at 20 µg/disc [15] [mm] | zone of inhibition at 20 µg/disc (Bacillus sp. (Mb 633); [17]) [mm] | zone of inhibition at 10 µg/disc [7, 18] [mm] | zone of inhibition at 20 µg/disc [7, 19] [mm] | further results
1 | Gastrin-17 |  |  |  |  |  |  |  |  |  |  |  |  |  |  |  |  |  |  |  |  | potency for stimulating gastric acid secretion relative to Gastrin-13 (gastric acid secretion): 2.5 times; potency for stimulating gastric acid secretion relative to Gastrin-34 (gastric acid secretion): 5 times
2 | CC1=C\[C@@H](OC(=O)Nc2cccc(C)c2)CC(=O)Cc2nc(co2)C(=O)N2CCC=C2C(=O)O[C@H](C(C)C)[C@H](C)/C=C/C(=O)NC\C=C\1 [Example 12] | 400 | 7.5 | 3000 | 1900 | 8000 | 0 | 0 | 9 | > 243 | 0 | 0 | 0 | 0 | 0 | 0 | 0 | 0 |  |  |  | A.R. = agonist ratio (CCK-A (rat pancreas) [4]; [3H]L-364,718 / [125I]BHCCK): 4.2; zone of inhibition at 20 µg/disc (Bacillus sp. (Mb 633); read-out: Inhibition zone diameter, Baci 633, @ 20 g/disc): 0 mm
3 | CC1=C\[C@@H](OC(=O)c2ccccc2)CC(=O)Cc2nc(co2)C(=O)N2CCC=C2C(=O)O[C@H](C(C)C)[C@H](C)/C=C/C(=O)NC\C=C\1 [Example 6] | 96 | 2 | 190 | 2300 | > 3000 | 0 | 0 | 8 | 0.003 (≈ 0.00189 µg/mL) | 0 | 0 | 0 | 0 | 0 | 0 | 0 | 0 | 0 | 10 | 9 | zone of inhibition at 40 µg/disc ([7]; ATCC9341, 40.0 μg/disc, 25° C., ~18 hours, read-out: Mean of triplicate zone size versus Micrococcus luteus): 10 mm; zone of inhibition at 80 µg/disc ([7]; ATCC9341, 80.0 μg/disc, 25° C., ~18 hours, read-out: Mean of triplicate zone size versus Micrococcus luteus): 10 mm; zone of inhibition at 160 µg/disc ([7]; ATCC9341, 160 μg/disc, 25° C., ~18 hours, read-out: Mean of triplicate zone size versus Micrococcus luteus): 11 mm
4 | CNC(=O)O[C@@H]1/C=C(C)/C=C/CNC(=O)/C=C/[C@@H](C)[C@@H](C(C)C)OC(=O)C2=CCCN2C(=O)c2coc(n2)CC(=O)C1 [Example 7] | 800 | 19 | > 3000 | > 3000 | > 3000 | 19 | 0 | 27 | 1.74 (≈ 1.01 µg/mL) | 11 | 22 | 10 | 16 | 0 | 0 | 0 | 0 | 7 | 22 | 25 | percentage in parentheses beside >3.0, [3H]L-365,260 (inhibition at top concentration, not defined) ([2]; beside IC50 >3.0): 14%; zone of inhibition at 1.25 µg/disc ([7]; ATCC9341, 1.25 μg/disc, 25° C., ~18 hours, read-out: Mean of triplicate zone size versus Micrococcus luteus): 8 mm; zone of inhibition at 2.5 µg/disc ([7]; ATCC9341, 2.50 μg/disc, 25° C., ~18 hours, read-out: Mean of triplicate zone size versus Micrococcus luteus): 13 mm; zone of inhibition at 5 µg/disc ([7]; ATCC9341, 5.00 μg/disc, 25° C., ~18 hours, read-out: Mean of triplicate zone size versus Micrococcus luteus): 18 mm
